What was measured:
giant foxtail = experiment: Test A preemergence; format: in vivo, Setaria faberii; details: for Plant response rating, Foxtail, Giant: 0 to 100 scale where 0 is no effect and 100 is complete control
In short: (§1)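 Visual 0–100 rating (100 = complete control) taken about 10 d post-treatment relative to untreated checks. Preemergence: directed soil spray on sown loam/sand pots. Postemergence: seedlings 2–10 cm, 1–2 leaf. Non-phytotoxic solvent formulation with surfactant.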

corn = experiment: Test A postemergence; format: in vivo, Zea mays
In short: as §1

blackgrass = experiment: Test C postemergence; format: in vivo, Alopecurus myosuroides
In short: (§2)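 Visual injury score versus untreated controls, 0 = no effect, 100 = complete control, taken 13 to 15 days after treatment in the greenhouse. Pre-emergence pots held loam/sand; post-emergence plants grew in sphagnum peat/vermiculite mix and were sprayed at the 1- to 4-leaf stage.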

wheat, winter = experiment: Test C postemergence; format: in vivo, Triticum aestivum; details: for Plant response rating, Wheat: scale 0 to 100 (0 no effect, 100 complete control)
In short: as §2

galium = experiment: Test C postemergence; format: in vivo, Galium aparine
In short: as §2

johnsongrass = experiment: Test C postemergence; format: in vivo, Sorghum halepense
In short: as §2

pigweed = experiment: Test C postemergence; format: in vivo, Amaranthus retroflexus; details: for Plant response rating, Pigweed: scale 0 to 100 (0 no effect, 100 complete control)
In short: as §2

ragweed = experiment: Test C postemergence; format: in vivo, Ambrosia elatior; details: for Plant response rating, Ragweed: scale 0 to 100 (0 no effect, 100 complete control)
In short: as §2

soybean = experiment: Test C postemergence; format: in vivo, Glycine max; details: for Plant response rating, Soybean: scale 0 to 100 (0 no effect, 100 complete control)
In short: as §2

oilseed rape = experiment: Test C postemergence; format: in vivo, Brassica napus; details: for Plant response rating, Oilseed Rape: scale 0 to 100 (0 no effect, 100 complete control)
In short: as §2

waterhemp = experiment: Test C postemergence; format: in vivo, Amaranthus rudis; details: for Plant response rating, Waterhemp: scale 0 to 100 (0 no effect, 100 complete control)
In short: as §2

kochia = experiment: Test C postemergence; format: in vivo, Kochia scoparia
In short: as §2

velvetleaf = experiment: Test C postemergence; format: in vivo, Abutilon theophrasti; details: for Plant response rating, Velvetleaf: scale 0 to 100 (0 no effect, 100 complete control)
In short: as §2

[1] = 125 g ai/ha, 0 to 100 scale where 0 is no effect and 100 is complete control
[2] = 16 g ai/ha, postemergence, 0 is no effect, 100 is complete control
[3] = 125 g ai/ha, postemergence, visual rating, scale 0 to 100 (0 no effect, 100 complete control)
[4] = Postemergence, 31 g ai/ha, scale 0 to 100 (0 no effect, 100 complete control), 13 to 15 days
[5] = Postemergence, 62 g ai/ha, scale 0 to 100 (0 no effect, 100 complete control)
[6] = 125 g ai/ha, postemergence, visual rating
[7] = 16 g ai/ha, postemergence, visual rating, scale 0 to 100 (0 no effect, 100 complete control), 13 to 15 days
[8] = Postemergence, 31 g ai/ha, 13 to 15 days

In the case of N#Cc1cnn(-c2c(Br)cccc2Oc2ncc(Cl)cn2)c1 [Compound 140], the “Plant response rating, Foxtail, Giant” value (giant foxtail; 31 g ai/ha, visual, approximately 10 days) is reported as 50, the “Plant response rating, Foxtail, Giant” value (giant foxtail; 125 g ai/ha) is reported as 100 and the “Plant response rating, Corn” value (corn; 31 g ai/ha, 0 to 100 scale, 0 no effect, 100 complete control) is reported as 20. For the same compound, the “Corn plant response rating” value (corn; [1]) was 30, the “Plant response rating (0 to 100), Blackgrass” value (blackgrass; [2]) was 0 and the “Plant response rating, Blackgrass” value (blackgrass; [3]) was 5. For the same compound, the “Plant response rating, Blackgrass” value (blackgrass; [4]) was 0, the “Plant response rating, Blackgrass” value (blackgrass; [5]) was 0 and the “Plant response rating (0 to 100), Wheat” value (wheat, winter; [2]) was 0. For the same compound, the “Plant response rating, Wheat” value (wheat, winter; [6]) was 10, the “Plant response rating, Wheat” value (wheat, winter; Postemergence, 62 g ai/ha) was 0 and the “Plant response rating (0 to 100), Galium” value (galium; [2]) was 50. For the same compound, the “Plant response rating, Galium” value (galium; [3]) was 95, the “Plant response rating, Galium” value (galium; [5]) was 90 and the “Plant response rating (0 to 100), Johnsongrass” value (johnsongrass; [2]) was 0. For the same compound, the “Plant response rating, Johnsongrass” value (johnsongrass; [3]) was 25, the “Plant response rating, Johnsongrass” value (johnsongrass; [5]) was 5 and the “Plant response rating (0 to 100), Pigweed” value (pigweed; [2]) was 85. The “Plant response rating, Pigweed” value (pigweed; [6]) was 90, the “Plant response rating, Pigweed” value (pigweed; Postemergence, 62 g ai/ha) was 90 and the “Plant response rating (0 to 100), Ragweed” value (ragweed; [2]) was 25. For the same compound, the “Plant response rating, Ragweed” value (ragweed; [6]) was 75, the “Plant response rating, Ragweed” value (ragweed; Postemergence, 62 g ai/ha) was 60 and the “Plant response rating (0 to 100), Soybean” value (soybean; [2]) was 25. For the same compound, the “Plant response rating, Soybean” value (soybean; [6]) was 75, the “Plant response rating, Soybean” value (soybean; Postemergence, 62 g ai/ha) was 65 and the “Plant response rating (0 to 100), Oilseed Rape” value (oilseed rape; [2]) was 5. The “Plant response rating, Oilseed Rape” value (oilseed rape; [6]) was 50, the “Plant response rating, Oilseed Rape” value (oilseed rape; Postemergence, 62 g ai/ha) was 50 and the “Plant response rating (0 to 100), Waterhemp” value (waterhemp; [2]) was 75. For the same compound, the “Plant response rating, Waterhemp” value (waterhemp; [6]) was 85, the “Plant response rating, Waterhemp” value (waterhemp; Postemergence, 62 g ai/ha) was 80 and the “Plant response rating (0 to 100), Kochia” value (kochia; [2]) was 70. The “Plant response rating, Kochia” value (kochia; [3]) was 90, the “Plant response rating, Kochia” value (kochia; [5]) was 85 and the “Plant response rating (0 to 100), Velvetleaf” value (velvetleaf; [2]) was 5. The “Plant response rating, Velvetleaf” value (velvetleaf; [6]) was 60 and the “Plant response rating, Velvetleaf” value (velvetleaf; Postemergence, 62 g ai/ha) was 45.

For CC(C)c1cnn(-c2c(C#N)cccc2Oc2ncc(Cl)cn2)c1 [Compound 85], the “Plant response rating, Foxtail, Giant” value (giant foxtail; 125 g ai/ha) was 100, the “Foxtail, Giant plant response rating” value (giant foxtail; 500 g ai/ha, 0 to 100 scale, 0 no effect, 100 complete control, approx. 10 days) was 100 and the “Plant response rating, Corn” value (corn; [1]) was 30. For the same compound, the “Plant response rating, Corn” value (corn; 500 g ai/ha, 0 to 100 scale, 0 no effect, 100 complete control) was 70, the “Blackgrass plant response rating” value (blackgrass; [7]) was 0 and the “Plant response rating (0 to 100), Blackgrass” value (blackgrass; 125 g ai/ha, postemergence) was 10. For the same compound, the “Plant response rating, Blackgrass” value (blackgrass; [4]) was 0, the “Plant response rating, Blackgrass” value (blackgrass; [5]) was 5 and the “Plant response rating (0 to 100), Wheat” value (wheat, winter; 125 g ai/ha, postemergence) was 0. For the same compound, the “Plant response rating, Wheat” value (wheat, winter; [8]) was 0, the “Plant response rating, Wheat” value (wheat, winter; Postemergence, 62 g ai/ha) was 5 and the “Galium plant response rating” value (galium; [7]) was 40. For the same compound, the “Plant response rating (0 to 100), Galium” value (galium; 125 g ai/ha, postemergence) was 75, the “Plant response rating, Galium” value (galium; [4]) was 50 and the “Plant response rating, Galium” value (galium; [5]) was 50. For the same compound, the “Johnsongrass plant response rating” value (johnsongrass; [7]) was 0, the “Plant response rating (0 to 100), Johnsongrass” value (johnsongrass; 125 g ai/ha, postemergence) was 10 and the “Plant response rating, Johnsongrass” value (johnsongrass; [4]) was 0. For the same compound, the “Plant response rating, Johnsongrass” value (johnsongrass; [5]) was 5, the “Plant response rating (0 to 100), Pigweed” value (pigweed; 125 g ai/ha, postemergence) was 70 and the “Plant response rating, Pigweed” value (pigweed; [8]) was 55. For the same compound, the “Plant response rating, Pigweed” value (pigweed; Postemergence, 62 g ai/ha) was 70, the “Plant response rating (0 to 100), Ragweed” value (ragweed; 125 g ai/ha, postemergence) was 65 and the “Plant response rating, Ragweed” value (ragweed; [8]) was 20. The “Plant response rating, Ragweed” value (ragweed; Postemergence, 62 g ai/ha) was 20, the “Plant response rating (0 to 100), Soybean” value (soybean; 125 g ai/ha, postemergence) was 90 and the “Plant response rating, Soybean” value (soybean; [8]) was 75. The “Plant response rating, Soybean” value (soybean; Postemergence, 62 g ai/ha) was 65, the “Plant response rating (0 to 100), Oilseed Rape” value (oilseed rape; 125 g ai/ha, postemergence) was 15 and the “Plant response rating, Oilseed Rape” value (oilseed rape; [8]) was 5. For the same compound, the “Plant response rating, Oilseed Rape” value (oilseed rape; Postemergence, 62 g ai/ha) was 30, the “Plant response rating (0 to 100), Waterhemp” value (waterhemp; 125 g ai/ha, postemergence) was 60 and the “Plant response rating, Waterhemp” value (waterhemp; [8]) was 55. For the same compound, the “Plant response rating, Waterhemp” value (waterhemp; Postemergence, 62 g ai/ha) was 70, the “Kochia plant response rating” value (kochia; [7]) was 50 and the “Plant response rating (0 to 100), Kochia” value (kochia; 125 g ai/ha, postemergence) was 90. The “Plant response rating, Kochia” value (kochia; [4]) was 50, the “Plant response rating, Kochia” value (kochia; [5]) was 80 and the “Plant response rating (0 to 100), Velvetleaf” value (velvetleaf; 125 g ai/ha, postemergence) was 55. For the same compound, the “Plant response rating, Velvetleaf” value (velvetleaf; [8]) was 45 and the “Plant response rating, Velvetleaf” value (velvetleaf; Postemergence, 62 g ai/ha) was 45.

— US9695155B2, “Herbicidal substituted pyrimidinyloxy benzene compounds” (E. I. DU PONT DE NEMOURS AND COMPANY, priority 2013, dated 2017)
